The values that follow come from patent publication US8440710B2, “HSL inhibitors useful in the treatment of diabetes” (Hoffmann-La Roche Inc., priority 2009, dated 2013).

For this assay, the target named is T1, human HSL (Homo sapiens, UniProt Q05469).
T1 construct: generate a full length human HSL ORF with a 3′-His6 tag; made in house; host or cells: High 5 insect cells (baculovirus, pFast-BAC)
T1 sequence (Q05469 1-1076): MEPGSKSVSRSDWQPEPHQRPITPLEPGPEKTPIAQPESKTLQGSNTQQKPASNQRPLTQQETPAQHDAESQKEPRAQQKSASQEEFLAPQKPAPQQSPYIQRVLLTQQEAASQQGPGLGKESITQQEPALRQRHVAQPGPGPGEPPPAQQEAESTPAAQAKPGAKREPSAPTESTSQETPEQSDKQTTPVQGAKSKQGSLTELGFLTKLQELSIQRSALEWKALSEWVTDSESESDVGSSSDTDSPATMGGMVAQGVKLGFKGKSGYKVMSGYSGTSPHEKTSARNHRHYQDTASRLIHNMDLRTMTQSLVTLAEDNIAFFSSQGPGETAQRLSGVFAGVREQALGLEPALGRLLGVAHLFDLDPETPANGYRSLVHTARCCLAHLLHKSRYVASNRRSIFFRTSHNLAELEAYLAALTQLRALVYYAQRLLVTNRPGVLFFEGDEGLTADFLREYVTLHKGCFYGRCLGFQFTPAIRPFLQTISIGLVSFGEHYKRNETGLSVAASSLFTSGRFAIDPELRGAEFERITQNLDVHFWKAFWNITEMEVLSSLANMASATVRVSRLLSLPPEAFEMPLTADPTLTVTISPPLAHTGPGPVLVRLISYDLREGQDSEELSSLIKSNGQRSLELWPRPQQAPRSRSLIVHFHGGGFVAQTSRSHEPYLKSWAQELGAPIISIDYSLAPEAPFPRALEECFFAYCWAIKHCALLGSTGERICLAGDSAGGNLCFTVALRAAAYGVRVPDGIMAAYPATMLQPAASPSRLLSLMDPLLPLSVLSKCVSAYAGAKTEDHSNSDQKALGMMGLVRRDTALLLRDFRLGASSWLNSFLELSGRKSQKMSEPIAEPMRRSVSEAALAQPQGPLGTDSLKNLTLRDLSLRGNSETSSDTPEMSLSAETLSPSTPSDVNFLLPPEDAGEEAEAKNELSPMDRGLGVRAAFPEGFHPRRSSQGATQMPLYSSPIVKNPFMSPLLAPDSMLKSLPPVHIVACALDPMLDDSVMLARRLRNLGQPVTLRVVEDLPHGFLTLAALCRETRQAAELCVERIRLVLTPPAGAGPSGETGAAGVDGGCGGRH
Put plainly: Human Hormone-Sensitive Lipase (HSL) enzyme inhibition assay (colorimetric, DMPT substrate). The note with it: human full length HSL-His6, 2,3-dimercapto-1-propanol tributyrate substrate, 37° C. 20 minutes, absorbance at 405 nm; read-out: HSL hum IC50. Type of assay: biochemical. The method, boiled down:
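Full-length human HSL with C-terminal His6, expressed in baculovirus-infected High 5 cells and Ni-NTA purified, was added (15 ug/ml stock) to 1.5 mM DMPT in 100 mM MOPS pH 7.2, 0.2 mg/ml fatty acid-free BSA containing compound. After 20 min at 37 °C, DTNB with SDS/Triton X-100 was added; A405 read after 15 min at RT.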
Regarding `Cn1nncc1[C@]1(O)CC[C@]2(CCN(c3ccc(C(F)(F)F)cc3)C2=O)CC1` [Example 215, (5α,8α)-8-Hydroxy-8-(3-methyl-3H-[1,2,3]triazol-4-yl)-2-(4-trifluoromethyl-phenyl)-2-aza-spiro[4.5]decan-1-one], the IC50 – broadly, the concentration that inhibits the measured activity by half – is 0.59 µM. The value for `CC(C)S(=O)(=O)C[C@]1(O)CC[C@]2(CCN(c3ccc(O[C@@H](C)C(F)(F)F)nc3)C2=O)CC1` [Example 323, (5α,8α)-8-Hydroxy-8-(propane-2-sulfonylmethyl)-2-[6-((S)-2,2,2-trifluoro-1-methyl-ethoxy)-pyridin-3-yl]-2-aza-spiro[4.5]decan-1-one] was 0.01 µM.

Turning to `CC(C)(C)c1ccc(N2CC[C@]3(CC[C@@](O)(CS(=O)(=O)C(C)(C)C)CC3)C2=O)cc1` [Example 334, (5α,8α)-2-(4-tert-Butyl-phenyl)-8-hydroxy-8-(2-methyl-propane-2-sulfonylmethyl)-2-aza-spiro[4.5]decan-1-one], the IC50 came to 0.008 µM.

In the case of `CCC[C@]1(O)CC[C@]2(CCN(c3ccc(O[C@H](C)C(F)(F)F)cc3)C2=O)CC1` [Example 164b, (5α,8α)-8-Hydroxy-8-propyl-2-[4-((R)-2,2,2-trifluoro-1-methyl-ethoxy)-phenyl]-2-aza-spiro[4.5]decan-1-one], the IC50 was 0.02 µM.

With `CC(C)[C@]1(O)CC[C@@]2(CCN(c3ccc(OC(F)(F)F)cc3)C2=O)CC1` [Example 69, (5α,8β)-8-Hydroxy-8-isopropyl-2-(4-trifluoromethoxy-phenyl)-2-aza-spiro[4.5]decan-1-one], the IC50 worked out at 0.56 µM.

Consider `Cc1cnc(CNC(=O)O[C@H]2CC[C@@]3(CCN(c4ccc(OC(F)(F)F)cc4)C3=O)CC2)cn1` [Example 25, (5-Methyl-pyrazin-2-ylmethyl)-carbamic acid [(5α,8β)-1-oxo-2-(4-trifluoromethoxy-phenyl)-2-aza-spiro[4.5]dec-8-yl]ester], for which the IC50 was determined as 0.08 µM. Next, `O=C1CCCCN1C[C@]1(O)CC[C@]2(CCN(c3ccc(OCC(F)(F)F)cc3)C2=O)CC1` [Example 368, (5α,8α)-8-Hydroxy-8-(2-oxo-piperidin-1-ylmethyl)-2-[4-(2,2,2-trifluoro-ethoxy)-phenyl]-2-aza-spiro[4.5]decan-1-one]: 0.08 µM; `COC[C@]1(O)CC[C@]2(CCN(c3ccc(OC(C)C)cc3)C2=O)CC1` [Example 210, (5α,8α)-8-hydroxy-2-(4-isopropoxyphenyl)-8-(methoxymethyl)-2-aza-spiro[4.5]decan-1-one]: 0.05 µM; `O=C1N(c2ccc(OCC(F)(F)F)cc2)CC[C@]12CC[C@@](O)(COCC(F)(F)F)CC2` [Example 233, (5α,8α)-8-Hydroxy-8-(2,2,2-trifluoro-ethoxymethyl)-2-[4-(2,2,2-trifluoro-ethoxy)-phenyl]-2-aza-spiro[4.5]decan-1-one]: 0.02 µM. Consider `CN(C)C(=O)C[C@]1(O)CC[C@]2(CCN(c3ccc(OC(F)(F)F)cc3)C2=O)CC1` [Example 156, 2-[(5α,8α)-8-Hydroxy-1-oxo-2-(4-trifluoromethoxy-phenyl)-2-aza-spiro[4.5]dec-8-yl]-N,N-dimethyl-acetamide], for which the IC50 came out at 0.06 µM. Next, `COCCC[C@]1(O)CC[C@@]2(CCN(c3ccc(OC(F)(F)F)cc3)C2=O)CC1` [Example 91, (5α,8β)-8-Hydroxy-8-(3-methoxy-propyl)-2-(4-trifluoromethoxy-phenyl)-2-aza-spiro[4.5]decan-1-one]: 0.896 µM; `CCCNC(=O)O[C@H]1CC[C@]2(CCN(c3ccc(CC)cc3)C2=O)CC1` [Example 44, Propyl-carbamic acid [(5α,8α)-2-(4-ethyl-phenyl)-1-oxo-2-aza-spiro[4.5]dec-8-yl]ester]: 1.48 µM. The value for `CC(C)OC[C@]1(O)CC[C@]2(CCN(c3ccc(O[C@H](C)C(F)(F)F)cc3)C2=O)CC1` [Example 310, (5α,8α)-8-Hydroxy-8-isopropoxymethyl-2-[4-((R)-2,2,2-trifluoro-1-methyl-ethoxy)-phenyl]-2-aza-spiro[4.5]decan-1-one] was 0.01 µM; that for `CCC[C@]1(O)CC[C@]2(CCN(c3ccc(OCCC(F)(F)F)cc3)C2=O)CC1` [Example 99, (5α,8α)-8-Hydroxy-8-propyl-2-[4-(3,3,3-trifluoro-propoxy)-phenyl]-2-aza-spiro[4.5]decan-1-one] was 0.03 µM; that for `COC[C@]1(O)CC[C@]2(CCN(c3ccc(C(C)(C)C)cc3)C2=O)CC1` [Example 346, (5α,8α)-2-(4-tert-Butyl-phenyl)-8-hydroxy-8-methoxymethyl-2-aza-spiro[4.5]decan-1-one] was 0.02 µM. In the case of `O=C(NCCc1ccccc1)O[C@H]1CC[C@@]2(CCN(c3ccc(OC(F)(F)F)cc3)C2=O)CC1` [Example 18, Phenethyl-carbamic acid [(5α,8β)-1-oxo-2-(4-trifluoromethoxy-phenyl)-2-aza-spiro[4.5]dec-8-yl]ester], the IC50 worked out at 0.06 µM. Regarding `CCCc1ccc(N2CC[C@]3(CC[C@H](O)CC3)C2=O)cc1` [Example 37, (5α,8α)-8-Hydroxy-2-(4-propyl-phenyl)-2-aza-spiro[4.5]decan-1-one], the half-inhibitory concentration (IC50) amounted to 0.21 µM. Next, `CC(C)(C)c1ccc(N2CC[C@]3(CC[C@@](O)(C(F)(F)F)CC3)C2=O)cc1` [Example 345, (5α,8α)-2-(4-tert-Butyl-phenyl)-8-hydroxy-8-trifluoromethyl-2-aza-spiro[4.5]decan-1-one]: 0.02 µM; `C[C@@H](Oc1ccc(N2CC[C@]3(CC[C@@](O)(COCc4ccccc4)CC3)C2=O)cc1)C(F)(F)F` [Example 144, (5α,8α)-8-(Benzyloxymethyl)-8-hydroxy-2-[4-((R)-2,2,2-trifluoro-1-methyl-ethoxy)-phenyl]-2-aza-spiro[4.5]decan-1-one]: 0.01 µM.

With `O=C1N(c2ccc(OCC(F)(F)F)cc2)CC[C@]12CC[C@](O)(COc1ccccn1)CC2` [Example 278, (5α,8β)-8-Hydroxy-8-(pyridin-2-yloxymethyl)-2-[4-(2,2,2-trifluoro-ethoxy)-phenyl]-2-aza-spiro[4.5]decan-1-one], the IC50 worked out at 0.02 µM. Next, `CCC[C@]1(O)CC[C@]2(CCN(c3ccc(C(O)C(F)F)cc3)C2=O)CC1` (stereo partly drawn) [Example 195, (5α,8α)-2-(4-(2,2-difluoro-1-hydroxyethyl)phenyl)-8-hydroxy-8-propyl-2-aza-spiro[4.5]decan-1-one]: 0.11 µM; `CC(C)OC[C@]1(O)CC[C@]2(CCN(c3ccc(C(C)(C)C)cc3)C2=O)CC1` [Example 349, (5α,8α)-2-(4-tert-Butyl-phenyl)-8-hydroxy-8-isopropoxymethyl-2-aza-spiro[4.5]decan-1-one]: 0.01 µM.

With `C[C@@H](Oc1ccc(N2CC[C@]3(CC[C@](O)(COCC(F)F)CC3)C2=O)cc1)C(F)(F)F` [Example 300, (5α,8β)-8-(2,2-Difluoro-ethoxymethyl)-8-hydroxy-2-[4-((R)-2,2,2-trifluoro-1-methyl-ethoxy)-phenyl]-2-aza-spiro[4.5]decan-1-one], the IC50 was found to be 0.3 µM. The value for `CC[C@]1(O)CC[C@@]2(CCN(c3ccc(OC(F)(F)F)cc3)C2=O)CC1` [Example 61, (5α,8β)-8-Ethyl-8-hydroxy-2-(4-trifluoromethoxy-phenyl)-2-aza-spiro[4.5]decan-1-one] was 2.09 µM.
